In patent US20240300941A1, “HPK1 INHIBITORS, PREPARATION METHOD AND APPLICATION THEREOF” (ZHUHAI YUFAN BIOTECHNOLOGIES CO., LTD., priority 2018, published 2024):

How the values were obtained:
HPK1 = HPK1 (Homo sapiens (Human), UniProt Q92918); test: HPK1 ADP-Glo enzyme assay; type: biochemical; conditions: HPK1 protein 5 nM, MBP and ATP substrate, ADP-Glo readout
Procedure: The buffer used in the enzyme assay contains 5 mM MOPS (pH=7.2), 2.5 mM β-Glycerol Phosphate, 0.4 mM EDTA, 1 mM EGTA, 0.05 mM DTT, 5 mM MgCl2. The compound was dissolved in 100% DMSO at the concentration was 10 mM. The initial concentration of the test was 5 uM, and ten data points were diluted by three-fold gradient, and each point was repeatedly measured twice. The HPK1 protein was purchased from Thermo (Cat. No. PV6355) and diluted to 2× stock solution at the concentration of 10 nM (the final concentration of the enzyme assay was 5 nM). 2.5 µl of 2×HPK1 protein was added to each well of the plate containing the test compound, centrifuged at 1000 rpm for 30 seconds, and then incubated at 25° C. for 15 minutes. MBP protein was purchased from Millipore (Cat. No. 13-110) and ATP was purchased from Sigma (Cat. No. A7699-5G) and the two were formulated into 2× working solutions at concentrations of 4 uM and 80 uM. Added 2.5 μl mixture of 2×MBP and ATP, centrifuged at 1000 rpm for 30 seconds, then incubated at 25° C. for 90 minutes. Then added 5 ul of ADP-Glo™ (Promega, Cat. No. V9102) to the assay plate and incubated […] at 25° C. for 60 minutes. Finally, 10 ul of the kinase assay reagent (Promega, Cat. No. V9102) was added to the assay plate, centrifuged at 1000 rpm for 30 seconds at 25° C. for 60 minutes, and the […] intensity was determined.

[1] = system: pSLP-76(Ser376) in Jurkat E6-1 cells; test: Jurkat E6-1 pSLP-76(Ser376) HTRF experiment; type: cell-based; conditions: 4 hours compound incubation, anti-human CD3 antibody 20 minutes, Phospho-SLP-76 / SLP-76 HTRF
Procedure: Jurkat E6-1 cells were purchased from ATCC (Cat. No. TIB-152TM) and cultured overnight with RPMI 1640 containing 0.5% o FBS, after that 20 μL (10^7 cells/mL) cells were added to the experimental plates. Then the test compounds were diluted by three-fold gradient, and 10 different concentrations were prepared, and 5 μl of each was added to the experimental plate, and incubated for 4 hours in 37° C. incubator containing 5% CO2. Then 5 ul of 6× anti-human CD3 antibody (Biolegend, Cat. No. 300432) was added and incubated for 20 minutes in 37° C. incubator containing 5% CO2. Finally, the Phospho-SLP-76 and SLP-76 results were determined using the Cisbio Phospho-SLP-76 and SLP-76 HTRF assay kits (items: 63ADK076PEH and 63ADK077PEH, respectively). Based on the results, the IC50 of the compound is calculated.

HPK1, sequence (Q92918 whole entry): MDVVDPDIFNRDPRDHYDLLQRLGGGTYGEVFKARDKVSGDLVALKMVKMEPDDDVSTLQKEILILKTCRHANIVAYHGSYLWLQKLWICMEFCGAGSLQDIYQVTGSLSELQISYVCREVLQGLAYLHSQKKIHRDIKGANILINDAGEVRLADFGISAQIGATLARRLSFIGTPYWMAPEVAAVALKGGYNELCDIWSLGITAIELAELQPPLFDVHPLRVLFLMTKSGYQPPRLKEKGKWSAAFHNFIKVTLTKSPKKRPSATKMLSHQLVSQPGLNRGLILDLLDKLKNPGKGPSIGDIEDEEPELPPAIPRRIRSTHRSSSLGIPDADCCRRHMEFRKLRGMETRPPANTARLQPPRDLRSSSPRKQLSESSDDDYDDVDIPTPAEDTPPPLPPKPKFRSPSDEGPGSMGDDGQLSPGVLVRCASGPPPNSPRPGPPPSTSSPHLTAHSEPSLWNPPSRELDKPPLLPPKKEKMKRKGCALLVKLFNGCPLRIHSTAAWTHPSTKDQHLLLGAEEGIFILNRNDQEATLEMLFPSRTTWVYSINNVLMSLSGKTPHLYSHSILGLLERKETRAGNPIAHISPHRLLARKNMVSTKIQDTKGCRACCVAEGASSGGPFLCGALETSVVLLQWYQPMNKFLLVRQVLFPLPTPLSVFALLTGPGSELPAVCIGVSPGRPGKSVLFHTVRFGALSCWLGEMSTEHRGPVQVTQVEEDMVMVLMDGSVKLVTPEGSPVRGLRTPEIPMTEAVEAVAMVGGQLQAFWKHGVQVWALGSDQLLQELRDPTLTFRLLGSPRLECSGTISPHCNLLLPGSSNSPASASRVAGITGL

| SMILES | IC50 (HPK1) [µM] | IC50 [1] [µM] |
| --- | --- | --- |
| CN1CCC(c2ncc(-c3cnc(N)c(OCc4ccnc(C#N)c4)c3)s2)CC1 [A11] | 0.1 to 1 | 1 to 50 |
| CN1CCC(c2ncc(-c3cnc(N)c(OCc4cc(C#CC5(O)CC5)ccc4F)c3)s2)CC1 [A48] | < 0.1 | < 1 |
| Nc1ncc(-c2cnc(C3CCNCC3)s2)cc1OCc1cccc(C#CC2(O)CC2)c1 [A52] | < 0.1 | < 1 |

The remaining lines, values ahead:

| IC50 (HPK1) [µM] | IC50 [1] [µM] | SMILES |
| --- | --- | --- |
| < 0.1 | < 1 | CC(C)c1ncc(-c2cnc(N)c(OCc3cc(C#CC(C)(C)O)ccc3F)c2)s1 [A21] |
| < 0.1 | < 1 | CN1CCC(c2ncc(-c3cnc(N)c(OCc4cc(C#CC(C)(C)O)ccc4Cl)c3)s2)CC1 [A55] |
| < 0.1 | < 1 | CN1CCC(c2ncc(-c3cnc(N)c(OCc4cc(F)cc(C#CC(C)(C)O)c4)c3)s2)CC1 [A57] |
